Reference: PMC3235172, “Distinct Expression Profiles and Different Functions of Odorant Binding Proteins in Nilaparvata lugens Stål” (PLoS ONE, 2011)
Like-named read-outs stand apart in the source and are kept apart here.

Key:
NlugOBP1 = NlugOBP1 (Nilaparvata lugens, UniProt B6E9U1); experiment: Competitive fluorescence binding assay (1-NPN probe) with recombinant NlugOBP1
Description: (§1) The excitation wavelength was 337 nm and the emission spectrum was recorded between 370 and 460 nm by a fluorescence spectrometer (Hitachi F-7000 Fluorescence Spectrophotometer, Japan) with a 1 cm light path quartz cuvette and 10 nm slits for both excitation and emission.

NlugOBP3 = NlugOBP3 (Nilaparvata lugens, UniProt B6E9U3); experiment: Competitive fluorescence binding assay (1-NPN probe) with recombinant NlugOBP3
Chain of NlugOBP3 (B6E9U3 entry or part of it): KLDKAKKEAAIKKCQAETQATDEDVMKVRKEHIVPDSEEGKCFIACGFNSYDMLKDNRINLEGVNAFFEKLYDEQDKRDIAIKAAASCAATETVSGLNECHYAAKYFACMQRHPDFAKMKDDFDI
Description: as §1

NlugOBP2 [1] = experiment: Competitive fluorescence binding assay (1-NPN probe) with recombinant NlugOBP2; set-up: species or system Nilaparvata lugens; settings: protein and 1-NPN at 2 µM
Description: as §1

NlugOBP2 [2] = target: NlugOBP2 (Nilaparvata lugens, UniProt B6E9U2); experiment: as above
Chain of NlugOBP2 (Nilaparvata lugens, UniProt B6E9U2) (B6E9U2 entry or part of it): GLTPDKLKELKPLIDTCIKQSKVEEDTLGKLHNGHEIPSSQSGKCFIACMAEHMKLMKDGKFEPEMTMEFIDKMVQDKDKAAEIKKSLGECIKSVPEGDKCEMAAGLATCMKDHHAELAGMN
Description: as §1

[3] = calculated from IC50, protein and 1-NPN at 2 µM, pH 7.4, read-out: OBP1 Ki
[4] = displacement of 1-NPN, protein and 1-NPN at 2 µM, 50 mM Tris-HCl pH 7.4, read-out: OBP1 IC50
[5] = calculated from IC50, protein and 1-NPN at 2 µM, pH 7.4, read-out: OBP3 Ki
[6] = displacement of 1-NPN, protein and 1-NPN at 2 µM, 50 mM Tris-HCl pH 7.4, read-out: OBP3 IC50
[7] = calculated from IC50, protein and 1-NPN at 2 µM, pH 7.4, read-out: OBP2 Ki
[8] = displacement of 1-NPN, protein and 1-NPN at 2 µM, 50 mM Tris-HCl pH 7.4, read-out: OBP2 IC50

Chain of NlugOBP1 (B6E9U1 entry or part of it): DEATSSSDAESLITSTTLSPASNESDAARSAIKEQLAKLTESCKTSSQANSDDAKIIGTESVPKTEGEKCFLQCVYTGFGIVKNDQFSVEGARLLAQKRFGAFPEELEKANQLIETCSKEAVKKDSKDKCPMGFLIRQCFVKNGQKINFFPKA

Compound	IC50 (NlugOBP1) [µM]	Ki (NlugOBP1) [µM]	IC50 (NlugOBP3) [µM]	Ki (NlugOBP3) [µM]	Ki (NlugOBP2 [1]; calculated from IC50, pH 7.4, read-out: OBP2 Ki) [µM]	IC50 (NlugOBP2 [1]; displacement of 1-NPN, 50 mM Tris-HCl pH 7.4, read-out: OBP2 IC50) [µM]	IC50 (NlugOBP2 [2]) [µM]	Ki (NlugOBP2 [2]) [µM]	Ki (NlugOBP1; [3]) [µM]	IC50 (NlugOBP1; [4]) [µM]	Ki (NlugOBP3; [5]) [µM]	IC50 (NlugOBP3; [6]) [µM]	Ki (NlugOBP2 [2]; [7]) [µM]	IC50 (NlugOBP2 [2]; [8]) [µM]
C[C@@H]1CC[C@H]2C(C)(C)[C@H]3C[C@@]12CC[C@@]3(C)O [Ligand 9, Cedrol]	30	25.6	19.7	14.1	30.1	35	–	–	–	–	–	–	–	–
CC(C)c1ccccc1 [Ligand 38, Cumene]	> 50	> 50	37.2	26.6	–	–	39.2	33.7	–	–	–	–	–	–
CC12CCC(CC1)C(C)(C)O2 [Ligand 40, Cineole]	–	–	–	–	–	–	–	–	> 50	> 50	> 50	> 50	> 50	> 50
CC(C)(C)c1cccc(C(C)(C)C)c1O [Ligand 41, 2,6-Di-tert-butylphenol]	–	–	–	–	–	–	–	–	19	22.3	9.5	13.3	> 50	> 50
